From patent publication US20260001928A1 (CORTERIA PHARMACEUTICALS, priority 2022, published 2026)
*1 amine or outer side, *2 acyl side, *3 side chain or, on linkers, in order; H or OH if unused. Where a SMILES comes first, the peptide text is derived from it. Where no end group is shown, it is not given here. Side-chain parts run from the residue outwards. [ ]: non-standard residue; d: D form. The star is where a group is joined. C18 diacid = O=C(O)CCCCCCCCCCCCCCCCC(=O)*; γGlu = O=C(O)[C@H](CCC(=O)[*:2])N[*:1]; NMeI = CC[C@H](C)[C@H](NC)C(=O)O; Pentanoyl = CCCCC(=O)*; AEEA = NCCOCCOCC(=O)O; Aib = CC(C)(N)C(=O)O

T1: CFR1R receptor (Homo sapiens, UniProt P34998)
T1 construct: host or cells: CHO-K1 (clone 2)
T1 sequence (P34998 24-415): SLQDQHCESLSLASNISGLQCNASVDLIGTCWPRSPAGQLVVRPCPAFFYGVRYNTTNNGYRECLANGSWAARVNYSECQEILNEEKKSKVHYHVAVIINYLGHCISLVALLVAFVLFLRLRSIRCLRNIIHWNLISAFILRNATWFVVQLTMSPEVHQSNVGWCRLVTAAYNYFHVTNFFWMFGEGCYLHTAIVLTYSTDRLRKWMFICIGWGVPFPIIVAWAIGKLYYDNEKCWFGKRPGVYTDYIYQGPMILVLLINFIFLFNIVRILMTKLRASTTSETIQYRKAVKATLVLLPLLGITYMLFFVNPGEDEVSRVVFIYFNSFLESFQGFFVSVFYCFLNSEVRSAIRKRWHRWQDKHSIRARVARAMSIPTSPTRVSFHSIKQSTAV

T2: CRF1R receptor (UniProt P34998 24-415, limits assumed)
T2 sequence (looked up): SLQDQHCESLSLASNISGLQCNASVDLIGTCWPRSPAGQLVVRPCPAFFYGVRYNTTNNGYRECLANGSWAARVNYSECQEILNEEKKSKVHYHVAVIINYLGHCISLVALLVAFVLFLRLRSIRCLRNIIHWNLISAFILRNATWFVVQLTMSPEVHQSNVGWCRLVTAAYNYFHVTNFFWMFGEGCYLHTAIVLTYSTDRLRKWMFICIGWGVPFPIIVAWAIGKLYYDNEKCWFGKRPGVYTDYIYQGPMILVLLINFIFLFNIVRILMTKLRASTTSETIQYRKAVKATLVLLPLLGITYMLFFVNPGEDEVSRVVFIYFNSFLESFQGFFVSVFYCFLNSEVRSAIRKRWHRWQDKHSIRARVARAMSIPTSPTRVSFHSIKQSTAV


Assays:
CFR1R receptor = molecular target: T1, CFR1R receptor; assay: Activity at anti-target CFR1R receptor, cAMP assay in CRF1R-overexpression CHO-K1 cells; assay type: cell-based; conditions: 100% = Sauvagine at 100 nM
Experimental: Assessment of activity at anti-target CFR1R receptor is done using the same procedure as the one described for the TeloHEAC cell line. The CRF1R-overexpression CHO-K1 cell line clone 2 was purchased from PerkinElmer. Cells were grown in a 10 cm dish at 37° C./5% CO2 in medium (F12 (Hams)/10% FBS/400 μg/ml G418) to near confluence. At that stage, cells were harvested, resuspended to 10 million/mL in culture medium without G418 and with 10% DMSO. 1 mL vial aliquots were slowly frozen to −80° C. in isopropanol and then transferred in liquid nitrogen for storage. These vials were used to run the experiment following the procedure reported in the previous paragraph, except for the compound used in the control well to define the 100% activation (Sauvagine at 100 nM) and the cell density (final cell density: 4000 cells/well)

CRF1R receptor = molecular target: T2, CRF1R receptor; assay: cell-based or functional assay

Molecule | Emax (% I) (CFR1R receptor) | further results
CC[C@H](C)[C@H](NC)C(=O)N[C@H](C(=O)N[C@@H](CC(C)C)C(=O)N[C@@H](CO)C(=O)N[C@@H](CC(C)C)C(=O)N[C@@H](CC(=O)O)C(=O)N[C@@H](C(=O)N1CCC[C@H]1C(=O)N[C@H](C(=O)N[C@@H](CCCCN)C(=O)N[C@@H](CC(C)C)C(=O)N[C@@H](CCCCNC(=O)CC[C@H](NC(=O)CCCCCCCCCCCCCCCCC(=O)O)C(=O)O)C(=O)N[C@@H](CCCCN)C(=O)N[C@H](C(=O)N[C@@H](CC(C)C)C(=O)N[C@@H](CC(C)C)C(=O)N[C@@H](CCC(=O)O)C(=O)N[C@@H](CCC(N)=O)C(=O)N[C@@H](CCC(=O)O)C(=O)N[C@@H](CCCCN)C(=O)N[C@@H](CCC(N)=O)C(=O)N[C@@H](CCCCN)C(=O)N[C@@H](CCCCN)C(=O)N[C@@H](CCC(N)=O)C(=O)N[C@@H](CCCNC(=N)N)C(=O)N[C@@H](CCC(=O)O)C(=O)N[C@@H](CCC(N)=O)C(=O)N[C@@H](C)C(=O)N[C@@H](CCC(=O)O)C(=O)N[C@H](C(=O)N[C@@H](CC(N)=O)C(=O)N[C@@H](CCC(=O)O)C(=O)N[C@@H](CCC(N)=O)C(=O)N[C@H](C(=O)N[C@@H](CC(C)C)C(=O)N[C@@H](C)C(=O)N[C@@H](CCC(N)=O)C(=O)N[C@H](C(N)=O)C(C)C)[C@@H](C)CC)[C@@H](C)O)[C@@H](C)CC)[C@@H](C)CC)C(C)C)C(C)C [SEQ ID No. 142, reference compound] (H-[NMeI]VLSLD[dV]PIKLK([γGlu-C18 diacid])KILLEQEKQKKQREQAETNEQILAQV-NH2) | – | Emax (% I) (CFR1R receptor; listed as 14): 24 % I
CC[C@H](C)[C@H](N)C(=O)N[C@H](C(=O)N[C@@H](CC(C)C)C(=O)N[C@@H](CO)C(=O)N[C@@H](CC(C)C)C(=O)N[C@@H](CC(=O)O)C(=O)N[C@H](C(=O)N1CCC[C@H]1C(=O)N[C@H](C(=O)N[C@@H](CCCCN)C(=O)N[C@@H](CC(C)C)C(=O)N[C@@H](CCCCNC(=O)COCCOCCNC(=O)COCCOCCNC(=O)CC[C@H](NC(=O)CC[C@H](NC(=O)CCCCCCCCCCCCCCCCC(=O)O)C(=O)O)C(=O)O)C(=O)N[C@@H](CCC(N)=O)C(=O)NC(C)(C)C(=O)N[C@@H](CC(C)C)C(=O)N[C@@H](CC(C)C)C(=O)N[C@@H](CCCCN)C(=O)N[C@@H](CCC(N)=O)C(=O)N[C@@H](CCC(=O)O)C(=O)N[C@@H](CCCNC(=N)N)C(=O)N[C@@H](CCC(N)=O)C(=O)N[C@@H](CCCCN)C(=O)N[C@@H](CCCCN)C(=O)N[C@@H](CCC(N)=O)C(=O)N[C@@H](CCCNC(=N)N)C(=O)N[C@@H](CCC(=O)O)C(=O)N[C@@H](CCC(N)=O)C(=O)N[C@@H](C)C(=O)N[C@@H](CCC(=O)O)C(=O)N[C@@H](CCCCN)C(=O)N[C@@H](CC(N)=O)C(=O)NC(C)(C)C(=O)N[C@@H](CCC(N)=O)C(=O)N[C@H](C(=O)N[C@@H](CC(C)C)C(=O)N[C@@H](CCC(=O)O)C(=O)N[C@@H](CCC(N)=O)C(=O)N[C@H](C(N)=O)C(C)C)[C@@H](C)CC)[C@@H](C)CC)C(C)C)C(C)C [compound 25] (H-IVLSLDVPIKLK([AEEA-AEEA-γGlu-γGlu-C18 diacid])Q[Aib]LLKQERQKKQREQAEKN[Aib]QILEQV-NH2) | 6 | –
CC[C@H](C)[C@H](NC)C(=O)N[C@H](C(=O)N[C@@H](CC(C)C)C(=O)N[C@@H](CO)C(=O)N[C@@H](CC(C)C)C(=O)N[C@@H](CC(=O)O)C(=O)N[C@@H](C(=O)N1CCC[C@H]1C(=O)N[C@H](C(=O)N[C@@H](CCCCN)C(=O)N[C@@H](CC(C)C)C(=O)N[C@@H](CCCCNC(=O)COCCOCCNC(=O)COCCOCCNC(=O)CC[C@H](NC(=O)CC[C@H](NC(=O)CCCCCCCCCCCCCCCCC(=O)O)C(=O)O)C(=O)O)C(=O)N[C@@H](CCC(N)=O)C(=O)N[C@H](C(=O)N[C@@H](CC(C)C)C(=O)N[C@@H](CC(C)C)C(=O)N[C@@H](CCCCN)C(=O)N[C@@H](CCC(N)=O)C(=O)N[C@@H](CCC(=O)O)C(=O)N[C@@H](CCCNC(=N)N)C(=O)N[C@@H](CCC(N)=O)C(=O)N[C@@H](CCCCN)C(=O)N[C@@H](CCCCN)C(=O)N[C@@H](CCC(N)=O)C(=O)N[C@@H](CCCNC(=N)N)C(=O)N[C@@H](CCC(=O)O)C(=O)N[C@@H](CCC(N)=O)C(=O)N[C@@H](C)C(=O)N[C@@H](CCC(=O)O)C(=O)N[C@@H](CCCCN)C(=O)N[C@@H](CC(N)=O)C(=O)NC(C)(C)C(=O)N[C@@H](CCC(N)=O)C(=O)N[C@H](C(=O)N[C@@H](CC(C)C)C(=O)N[C@@H](CCC(=O)O)C(=O)N[C@@H](CCC(N)=O)C(=O)N[C@H](C(N)=O)C(C)C)[C@@H](C)CC)[C@@H](C)CC)[C@@H](C)CC)C(C)C)C(C)C [compound 31] (H-[NMeI]VLSLD[dV]PIKLK([AEEA-AEEA-γGlu-γGlu-C18 diacid])QILLKQERQKKQREQAEKN[Aib]QILEQV-NH2) | 14 | –
CCCCC(=O)N[C@H](C(=O)N[C@@H](CC(C)C)C(=O)N[C@@H](CO)C(=O)N[C@@H](CC(C)C)C(=O)N[C@@H](CC(=O)O)C(=O)N[C@@H](C(=O)N1CCC[C@H]1C(=O)N[C@H](C(=O)N[C@@H](CCCCN)C(=O)N[C@@H](CC(C)C)C(=O)N[C@@H](CCCCNC(=O)COCCOCCNC(=O)COCCOCCNC(=O)CC[C@H](NC(=O)CC[C@H](NC(=O)CCCCCCCCCCCCCCCCC(=O)O)C(=O)O)C(=O)O)C(=O)N[C@@H](CCC(N)=O)C(=O)N[C@H](C(=O)N[C@@H](CC(C)C)C(=O)N[C@@H](CC(C)C)C(=O)N[C@@H](CCCCN)C(=O)N[C@@H](CCC(N)=O)C(=O)N[C@@H](CCC(=O)O)C(=O)N[C@@H](CCCNC(=N)N)C(=O)N[C@@H](CCC(N)=O)C(=O)N[C@@H](CCCCN)C(=O)N[C@@H](CCCCN)C(=O)N[C@@H](CCC(N)=O)C(=O)N[C@@H](CCCNC(=N)N)C(=O)N[C@@H](CCC(=O)O)C(=O)N[C@@H](CCC(N)=O)C(=O)N[C@@H](C)C(=O)N[C@@H](CCC(=O)O)C(=O)N[C@@H](CCCCN)C(=O)N[C@@H](CC(N)=O)C(=O)NC(C)(C)C(=O)N[C@@H](CCC(N)=O)C(=O)N[C@H](C(=O)N[C@@H](CC(C)C)C(=O)N[C@@H](CCC(=O)O)C(=O)N[C@@H](CCC(N)=O)C(=O)N[C@H](C(N)=O)C(C)C)[C@@H](C)CC)[C@@H](C)CC)[C@@H](C)CC)C(C)C)C(C)C [compound 32] (Pentanoyl-VLSLD[dV]PIKLK([AEEA-AEEA-γGlu-γGlu-C18 diacid])QILLKQERQKKQREQAEKN[Aib]QILEQV-NH2) | 5 | –
IVLSLD[dV]PIKLK([AEEA-AEEA-γGlu-C18 diacid])QILLKQERQKKQREQAEKNKQILEQV-NH2 (N-terminus assumed; SMILES CC[C@H](C)[C@H](N)C(=O)N[C@H](C(=O)N[C@@H](CC(C)C)C(=O)N[C@@H](CO)C(=O)N[C@@H](CC(C)C)C(=O)N[C@@H](CC(=O)O)C(=O)N[C@@H](C(=O)N1CCC[C@H]1C(=O)N[C@H](C(=O)N[C@@H](CCCCN)C(=O)N[C@@H](CC(C)C)C(=O)N[C@@H](CCCCNC(=O)COCCOCCNC(=O)COCCOCCNC(=O)CC[C@H](NC(=O)CCCCCCCCCCCCCCCCC(=O)O)C(=O)O)C(=O)N[C@@H](CCC(N)=O)C(=O)N[C@H](C(=O)N[C@@H](CC(C)C)C(=O)N[C@@H](CC(C)C)C(=O)N[C@@H](CCCCN)C(=O)N[C@@H](CCC(N)=O)C(=O)N[C@@H](CCC(=O)O)C(=O)N[C@@H](CCCNC(=N)N)C(=O)N[C@@H](CCC(N)=O)C(=O)N[C@@H](CCCCN)C(=O)N[C@@H](CCCCN)C(=O)N[C@@H](CCC(N)=O)C(=O)N[C@@H](CCCNC(=N)N)C(=O)N[C@@H](CCC(=O)O)C(=O)N[C@@H](CCC(N)=O)C(=O)N[C@@H](C)C(=O)N[C@@H](CCC(=O)O)C(=O)N[C@@H](CCCCN)C(=O)N[C@@H](CC(N)=O)C(=O)N[C@@H](CCCCN)C(=O)N[C@@H](CCC(N)=O)C(=O)N[C@H](C(=O)N[C@@H](CC(C)C)C(=O)N[C@@H](CCC(=O)O)C(=O)N[C@@H](CCC(N)=O)C(=O)N[C@H](C(N)=O)C(C)C)[C@@H](C)CC)[C@@H](C)CC)[C@@H](C)CC)C(C)C)C(C)C) [SEQ ID NO 150] | – | Emax (% I) (CRF1R receptor): 38%
